Data as given in US20230241064A1, “METHODS OF TREATMENT AND/OR PREVENTION OF MAJOR ADVERSE CARDIOVASCULAR EVENTS (MACE) WITH A COMBINATION OF A BET BROMODOMAIN INHIBITOR AND A DIPEPTIDYL PEPTIDASE 4 INHIBITOR” (Resverlogix Corp., priority 2020, published 2023).

How the values were obtained:
[1] = EXAMINE; cited from earlier work
[2] = tested on: type 2 diabetes patients with low HDL cholesterol and a recent acute coronary syndrome (ACS); experiment: BETonMACE Phase 3 trial post-hoc analysis: cumulative incidence of narrowly defined MACE; type: in vivo, human
Method: Patients (n=2425) with ACS in the preceding 7 to 90 days, with type 2 diabetes and low HDL cholesterol (≤40 mg/dl for men, ≤45 mg/dl for women), receiving intensive or maximum-tolerated therapy with atorvastatin or rosuvastatin, were assigned in double-blind fashion to receive apabetalone 100 mg orally twice daily or matching placebo. Baseline characteristics include female sex (25%), myocardial infarction as index ACS event (74%), coronary revascularization for index ACS (76%), treatment with dual anti-platelet therapy (87%) and renin-angiotensin system inhibitors (91%), median LDL cholesterol 65 mg per deciliter, and median HbA1c 7.3%. The primary efficacy measure is time to first occurrence of cardiovascular death, non-fatal myocardial infarction, or stroke. Assumptions include a primary event rate of 7% per annum in the placebo group and median follow-up of 1.5 years. Patients were followed until at least 250 primary endpoint events had occurred, providing 80% power to detect a 30% reduction in the primary endpoint with apabetalone.
Those patients who received at least one dose of DPP-4 inhibitor treatment after the date of the first incidence of event were censored as non-MACE events and the date of last contact was used as the censoring date.
The distributions of the endpoints within the apabetalone and placebo groups were compared using a two-sided log-rank test (LRT) with an alpha=0.05 level of significance. The cumulative incidence is shown as 1-KM (Kaplan-Meier) estimate for event rate.

[3] = tested on: type 2 diabetes patients with low HDL cholesterol and a recent acute coronary syndrome (ACS); experiment: BETonMACE post-hoc analysis: cumulative incidence of broadly defined MACE; type: in vivo, human; details: patients without DPP-4 inhibitor; vs placebo (non-treatment); FIG. 5
[4] = tested on: type 2 diabetes patients with low HDL cholesterol and a recent acute coronary syndrome (ACS); experiment: BETonMACE post-hoc analysis: cumulative incidence of non-fatal myocardial infarction; type: in vivo, human; details: patients without DPP-4 inhibitor; vs placebo (non-treatment); FIG. 8
Method: (§1) Apabetalone (RVX-208) was evaluated in a recently completed clinical Phase 3 trial (BETonMACE; NCT02586155) for the effect on MACE in type 2 diabetes patients with low HDL cholesterol (below 40 mg/dL for males and below 45 mg/dL for females) and a recent acute coronary syndrome (ACS). All patients received high intensity statin treatment, which was 20-40 mg daily or a maximum daily dose of 40 mg for rosuvastatin or 40-80 mg daily or a maximum daily dose of 80 mg for atorvastatin.
(§2) Patients (n=2425) with ACS in the preceding 7 to 90 days, with type 2 diabetes and low HDL cholesterol (≤40 mg/dl for men, ≤45 mg/dl for women), receiving intensive or maximum-tolerated therapy with atorvastatin or rosuvastatin, were assigned in double-blind fashion to receive apabetalone 100 mg orally twice daily or matching placebo. Baseline characteristics include female sex (25%), myocardial infarction as index ACS event (74%), coronary revascularization for index ACS (76%), treatment with dual anti-platelet therapy (87%) and renin-angiotensin system inhibitors (91%), median LDL cholesterol 65 mg per deciliter, and median HbA1c 7.3%. The primary efficacy measure is time to first occurrence of cardiovascular death, non-fatal myocardial infarction, or stroke. Assumptions include a primary event rate of 7% per annum in the placebo group and median follow-up of 1.5 years. […]

[5] = tested on: type 2 diabetes patients with low HDL cholesterol and a recent acute coronary syndrome (ACS); experiment: BETonMACE post-hoc analysis: cumulative incidence of cardiovascular death; type: in vivo, human; details: patients without DPP-4 inhibitor; vs placebo (non-treatment); FIG. 11
Method: as §1, §2

[6] = tested on: type 2 diabetes patients with low HDL cholesterol and a recent acute coronary syndrome (ACS); experiment: BETonMACE post-hoc analysis: cumulative incidence of hospitalization for congestive heart failure; type: in vivo, human; details: patients without DPP-4 inhibitor, vs placebo (non-treatment)
[7] = vs placebo; TECOS trial; cited from earlier work

For Cn1c(=O)cc(N2CCC[C@@H](N)C2)n(Cc2ccccc2C#N)c1=O [alogliptin], the “effect on the 3-point MACE composite outcome of cardiovascular death, myocardial infarction, or ischemic stroke” value [1] is listed as “neutral effect”.

With COc1cc(OC)c2c(=O)[nH]c(-c3cc(C)c(OCCO)c(C)c3)nc2c1 [apabetalone, 2-(4-(2-hydroxyethoxy)-3,5-dimethylphenyl)-5,7-dimethoxyquinazolin-4(3H)-one] the “number of primary end points (narrowly defined MACE: cardiovascular death, non-fatal myocardial infarction, or stroke)” value ([2]; apabetalone 100 mg orally twice daily, on statin, per treatment group) was 114, the “Kaplan-Meier estimated event rate, narrowly defined MACE” value ([2]; at 18 months) was 8.0% and the “Hazard Ratio, narrowly defined MACE” value ([2]; patients without DPP-4 inhibitor, vs placebo (non-treatment), FIG. 2) was 0.99. The “primary end points (narrowly defined MACE) as percent of group” value ([2]; per treatment group) was 10.9%, the “Hazard Ratio, broadly defined MACE” value [3] was 1.00 and the “Hazard Ratio, non-fatal myocardial infarction” value [4] was 0.99. For the same molecule, the “Hazard Ratio, cardiovascular death” value [5] was 0.97, the “reduction of number of patients having a hospitalization for congestive heart failure event at any given time” value [6] was 27% and the “Hazard Ratio, hospitalization for congestive heart failure” value ([6]; FIG. 14) was 0.73.

For N[C@@H](CC(=O)N1CCn2c(nnc2C(F)(F)F)C1)Cc1cc(F)c(F)cc1F [sitagliptin], the “hazard ratio (HR), 3-point MACE composite outcome” value [7] is given as 0.99 and the “hazard ratio (HR), 4-point MACE composite outcome” value [7] is given as 0.98.
